Experiment: xn = mol fraction of the nth substance listed
Conditions: Liquid, Vibrating tube method

CCC(=O)OC [methyl propanoate] + CCCCCCCCC
Conditions | mass density [kg/m3]
288.15 K, x1 = 0.0638 | 727.45
288.15 K, x1 = 0.0962 | 730.67
288.15 K, x1 = 0.1483 | 736.11
288.15 K, x1 = 0.2104 | 743.23
288.15 K, x1 = 0.2364 | 746.3
288.15 K, x1 = 0.2979 | 754.2
288.15 K, x1 = 0.3526 | 761.75
288.15 K, x1 = 0.4001 | 768.71
288.15 K, x1 = 0.4322 | 773.78
288.15 K, x1 = 0.4985 | 784.9
288.15 K, x1 = 0.5504 | 794.42
288.15 K, x1 = 0.5954 | 803.25
288.15 K, x1 = 0.6449 | 813.66
288.15 K, x1 = 0.693 | 824.65
288.15 K, x1 = 0.7454 | 837.57
288.15 K, x1 = 0.7911 | 849.84
288.15 K, x1 = 0.8391 | 863.79
288.15 K, x1 = 0.8911 | 880.25
288.15 K, x1 = 0.9477 | 900.31
288.15 K, x1 = 1 | 921.21
298.15 K, x1 = 0.0519 | 718.48
298.15 K, x1 = 0.1041 | 723.58
298.15 K, x1 = 0.1448 | 727.66
298.15 K, x1 = 0.1889 | 732.52
298.15 K, x1 = 0.2498 | 739.65
298.15 K, x1 = 0.2949 | 745.26
298.15 K, x1 = 0.3489 | 752.48
298.15 K, x1 = 0.409 | 761.11
298.15 K, x1 = 0.4474 | 767.1
298.15 K, x1 = 0.5033 | 776.37
298.15 K, x1 = 0.6015 | 794.61
298.15 K, x1 = 0.6609 | 807.17
298.15 K, x1 = 0.7048 | 817.21
298.15 K, x1 = 0.751 | 828.64
298.15 K, x1 = 0.7937 | 839.79
298.15 K, x1 = 0.8444 | 854.36
298.15 K, x1 = 0.9002 | 871.96
298.15 K, x1 = 0.9516 | 890.02
298.15 K, x1 = 1 | 909.1
308.15 K, x1 = 0.0618 | 711.31
308.15 K, x1 = 0.1007 | 715.02
308.15 K, x1 = 0.165 | 721.49
308.15 K, x1 = 0.1941 | 724.61
308.15 K, x1 = 0.2601 | 732.22
308.15 K, x1 = 0.2902 | 735.94
308.15 K, x1 = 0.3585 | 744.82
308.15 K, x1 = 0.4102 | 752.25
308.15 K, x1 = 0.4567 | 759.29
308.15 K, x1 = 0.4962 | 765.69
308.15 K, x1 = 0.5559 | 776.15
308.15 K, x1 = 0.5986 | 784.17
308.15 K, x1 = 0.6514 | 794.91
308.15 K, x1 = 0.699 | 805.43
308.15 K, x1 = 0.7476 | 817.03
308.15 K, x1 = 0.796 | 829.48
308.15 K, x1 = 0.8477 | 844.14
308.15 K, x1 = 0.8947 | 858.8
308.15 K, x1 = 0.9504 | 877.94
308.15 K, x1 = 1 | 896.91
318.15 K, x1 = 0.0587 | 703.05
318.15 K, x1 = 0.1139 | 708.17
318.15 K, x1 = 0.141 | 710.78
318.15 K, x1 = 0.2148 | 718.51
318.15 K, x1 = 0.2624 | 723.9
318.15 K, x1 = 0.3145 | 730.23
318.15 K, x1 = 0.3621 | 736.39
318.15 K, x1 = 0.394 | 740.75
318.15 K, x1 = 0.4491 | 748.79
318.15 K, x1 = 0.4889 | 755.06
318.15 K, x1 = 0.5458 | 764.61
318.15 K, x1 = 0.6011 | 774.72
318.15 K, x1 = 0.6538 | 785.15
318.15 K, x1 = 0.6972 | 794.52
318.15 K, x1 = 0.7464 | 805.96
318.15 K, x1 = 0.7904 | 816.99
318.15 K, x1 = 0.8414 | 831.04
318.15 K, x1 = 0.8899 | 845.62
318.15 K, x1 = 0.9498 | 865.72
318.15 K, x1 = 1 | 884.71
328.15 K, x1 = 0.0562 | 694.8
328.15 K, x1 = 0.0989 | 698.61
328.15 K, x1 = 0.1503 | 703.45
328.15 K, x1 = 0.1813 | 706.43
328.15 K, x1 = 0.194 | 707.71
328.15 K, x1 = 0.2651 | 715.48
328.15 K, x1 = 0.3128 | 721.06
328.15 K, x1 = 0.3582 | 726.72
328.15 K, x1 = 0.4509 | 739.58
328.15 K, x1 = 0.5045 | 747.9
328.15 K, x1 = 0.5545 | 756.22
328.15 K, x1 = 0.6005 | 764.42
328.15 K, x1 = 0.6523 | 774.55
328.15 K, x1 = 0.7484 | 795.44
328.15 K, x1 = 0.7963 | 807.38
328.15 K, x1 = 0.8469 | 821.01
328.15 K, x1 = 0.9004 | 836.96
328.15 K, x1 = 0.9501 | 853.63
328.15 K, x1 = 1 | 872.22

CCC(=O)OC [methyl propanoate] + CCCCCCC
Conditions | mass density [kg/m3]
288.15 K, x1 = 0.0584 | 696.1
288.15 K, x1 = 0.1524 | 710.11
288.15 K, x1 = 0.2121 | 719.49
288.15 K, x1 = 0.2626 | 728.22
288.15 K, x1 = 0.2841 | 731.88
288.15 K, x1 = 0.3577 | 745.5
288.15 K, x1 = 0.4021 | 754.13
288.15 K, x1 = 0.4565 | 765.31
288.15 K, x1 = 0.5036 | 775.51
288.15 K, x1 = 0.5554 | 787.28
288.15 K, x1 = 0.6032 | 798.81
288.15 K, x1 = 0.651 | 810.73
288.15 K, x1 = 0.7008 | 824.05
288.15 K, x1 = 0.742 | 835.61
288.15 K, x1 = 0.7927 | 850.46
288.15 K, x1 = 0.8457 | 866.96
288.15 K, x1 = 0.953 | 903.48
288.15 K, x1 = 1 | 921.21
298.15 K, x1 = 0.0606 | 687.94
298.15 K, x1 = 0.1046 | 694.01
298.15 K, x1 = 0.1706 | 703.97
298.15 K, x1 = 0.2332 | 713.99
298.15 K, x1 = 0.2863 | 722.89
298.15 K, x1 = 0.332 | 730.95
298.15 K, x1 = 0.3827 | 740.59
298.15 K, x1 = 0.4242 | 748.73
298.15 K, x1 = 0.4831 | 760.98
298.15 K, x1 = 0.5328 | 771.82
298.15 K, x1 = 0.5887 | 784.89
298.15 K, x1 = 0.6395 | 797.24
298.15 K, x1 = 0.6831 | 808.46
298.15 K, x1 = 0.733 | 821.94
298.15 K, x1 = 0.7758 | 834.28
298.15 K, x1 = 0.8196 | 847.29
298.15 K, x1 = 0.8646 | 861.68
298.15 K, x1 = 0.9035 | 874.46
298.15 K, x1 = 0.9591 | 893.83
298.15 K, x1 = 1 | 909.1
308.15 K, x1 = 0.046 | 676.88
308.15 K, x1 = 0.0974 | 683.97
308.15 K, x1 = 0.1499 | 691.6
308.15 K, x1 = 0.2093 | 700.71
308.15 K, x1 = 0.2472 | 706.83
308.15 K, x1 = 0.2655 | 709.84
308.15 K, x1 = 0.3021 | 716.16
308.15 K, x1 = 0.3462 | 723.99
308.15 K, x1 = 0.3973 | 733.51
308.15 K, x1 = 0.4379 | 741.49
308.15 K, x1 = 0.5001 | 754.33
308.15 K, x1 = 0.5482 | 764.86
308.15 K, x1 = 0.6013 | 777.11
308.15 K, x1 = 0.6438 | 787.52
308.15 K, x1 = 0.7002 | 801.92
308.15 K, x1 = 0.7516 | 815.93
308.15 K, x1 = 0.7947 | 828.3
308.15 K, x1 = 0.8541 | 846.5
308.15 K, x1 = 0.8904 | 858.19
308.15 K, x1 = 0.9494 | 878.31
308.15 K, x1 = 1 | 896.91
318.15 K, x1 = 0.054 | 669.26
318.15 K, x1 = 0.1006 | 675.53
318.15 K, x1 = 0.1635 | 684.64
318.15 K, x1 = 0.1984 | 689.88
318.15 K, x1 = 0.2627 | 699.98
318.15 K, x1 = 0.2892 | 704.22
318.15 K, x1 = 0.3492 | 714.64
318.15 K, x1 = 0.3962 | 723.32
318.15 K, x1 = 0.4482 | 733.48
318.15 K, x1 = 0.5006 | 744.15
318.15 K, x1 = 0.554 | 755.69
318.15 K, x1 = 0.5928 | 764.54
318.15 K, x1 = 0.6531 | 779.07
318.15 K, x1 = 0.7022 | 791.53
318.15 K, x1 = 0.7463 | 803.36
318.15 K, x1 = 0.796 | 817.45
318.15 K, x1 = 0.8421 | 831.26
318.15 K, x1 = 0.8911 | 846.73
318.15 K, x1 = 0.9487 | 866.17
318.15 K, x1 = 1 | 884.71
328.15 K, x1 = 0.0434 | 659.02
328.15 K, x1 = 0.1 | 666.42
328.15 K, x1 = 0.1539 | 673.86
328.15 K, x1 = 0.2137 | 682.78
328.15 K, x1 = 0.263 | 690.45
328.15 K, x1 = 0.361 | 707.07
328.15 K, x1 = 0.3858 | 711.54
328.15 K, x1 = 0.4619 | 725.95
328.15 K, x1 = 0.5057 | 734.85
328.15 K, x1 = 0.5548 | 745.3
328.15 K, x1 = 0.6006 | 755.62
328.15 K, x1 = 0.6513 | 767.59
328.15 K, x1 = 0.7013 | 780.04
328.15 K, x1 = 0.7484 | 792.52
328.15 K, x1 = 0.7954 | 805.67
328.15 K, x1 = 0.8441 | 820.03
328.15 K, x1 = 0.8954 | 836.18
328.15 K, x1 = 0.9351 | 849.33
328.15 K, x1 = 1 | 872.22

Source: the NIST ThermoML archive (doi:10.1021/je4009415)
